Results from patent US20150125471A1, “METHOD AND PHARMACEUTICAL COMPOSITION FOR USE IN THE TREATMENT AND DIAGNOTIC OF ANEMIA OF INFLAMMATION” (INSERM (INSTITUT NATIONAL DE LA SANTE ET DE LA RECHERCHE …, priority 2012, published 2015).

What was measured:
[1] = tested on: Hepcidin (Hamp) mRNA in HepG2 cells; assay: Hepcidin mRNA expression in HepG2 cells by qRT-PCR; type: cell-based, human; conditions: for hepcidin mRNA expression increase / hepcidin −ΔΔCt ±SD: HepG2 cells, 50 ng/ml each, peak levels 4 hours after treatment
Description: (§1) Human hepatoma cells (HepG2; ATCC) were cultured in high glucose Dulbecco's Modified Eagle Media (DMEM) supplemented with 10% fetal calf serum (FCS) and antibiotics. For stimulation experiments, cells were transferred to 6-well dishes and starved with DMEM containing 0.1% FCS for 5 hours before exposure to IL-6 (50 ng/ml; R&D Systems) and/or activin A (50 ng/ml; R&D) or activin B (50 ng/ml; R&D) for 1 h30, 2 h30, 4 h, 6 h, and 24 h. The pharmacological inhibitor LDN-193189 (100 nM; Axon Medchem), ALK2-Fc (1 μg/mL; R&D), or ALK3-Fc (1 μg/mL; R&D) were added 30 min prior to activin B exposure.
(§2) Total RNA from mouse liver, human hepatoma cells, or mouse primary hepatocytes, was extracted using Trizol (Invitrogen). cDNA was synthesized using MMLV-RT (Promega). Quantitative PCR (Q-PCR) reactions were prepared with LightCycler® 480 DNA SYBR Green I Master reaction mix (Roche Diagnostics) and run in duplicate on a LightCycler® 480 Instrument (Roche Diagnostics).
(§3) Means of −ΔCt (i.e., Ct Hprt−Ct target)±standard deviation (SD) were calculated for the different groups of mice. Means of −ΔCt values between LPS-challenged and unchallenged mice were compared by Student's t-tests. Because, in addition to inflammation, mouse genotype (wild-type versus Bmp6−/−) may also affect mean −ΔCt values, we used two-way analysis of variance (ANOVA) to test for the effect of both factors and their interaction. Differences between mean −ΔCt at a specific time point after LPS administration and mean −ΔCt at time 0 (−ΔΔCt±SD) were also calculated and point estimations of fold changes induced by LPS administration obtained by raising 2 to the power −ΔΔCt (Yuan et al., 2006). For HepG2 cells or mouse primary hepatocytes, −ΔΔCt values (i.e., −ΔCt treatment+ΔCt vehicle)±SD were obtained for each condition and means of −ΔΔCt were compared to 0 by Student's t-tests.

[2] = tested on: Smad1/5/8 phosphorylation in mouse primary hepatocytes; assay: Smad1/5/8 phosphorylation in mouse primary hepatocytes by immunoblot; type: cell-based
Description: (§4) Mouse primary hepatocytes were isolated from ten-week-old Bmp6-deficient mice using a collagenase perfusion protocol (Lin et al., 2007). The viable hepatocyte population was further purified by a Percoll gradient centrifugation. Hepatocytes were plated in 6-well collagen-coated plates at 7×10^5 cells per well and cultured in DMEM supplemented with 10% FCS and antibiotics for 18 hours. After serum starvation for 5 hours in 0.1% FCS, hepatocytes were stimulated with IL-6 (50 ng/ml) and/or activin B (50 ng/ml), or vehicle, in the presence or absence of LDN-193189 (l μM), and RNA was harvested 1, 2, 3, and 4 hours later.
(§5) Livers were homogenized in a FastPrep®-24 Instrument (MP Biomedicals) for 15 sec at 4 m/s. The lysis buffer (50 mM Tris-HCl, pH 8, 150 mM NaCl, 5 mM EDTA, pH 8, 0.1% NP-40) included inhibitors of proteases (complete protease inhibitor cocktail, Roche Applied Science) and of phosphatases (phosphatase inhibitor cocktail 2, Sigma-Aldrich). Liver proteins were quantified using the Bio-Rad Protein Assay kit. HepG2 cells and mouse primary hepatocytes were lysed in RIPA buffer (Sigma-Aldrich) supplemented with protease and phosphatase inhibitors, and proteins were quantified using the Bio-Rad DC Protein Assay.
(§6) Fresh protein extracts were diluted in Laemmli buffer (Sigma-Aldrich), incubated for 5 minutes at 95° C., and subjected to SDS-PAGE. […]

hepcidin expression = conditions: cultured hepatoma-derived cells, zebrafish, mouse, or rat; cited from earlier work
[3] = tested on: Hepcidin (Hamp) mRNA in mouse primary hepatocytes; assay: Hepcidin mRNA expression in mouse primary hepatocytes by qRT-PCR; type: cell-based; conditions: for hepcidin mRNA increase / hepcidin −ΔΔCt ±SD: primary hepatocytes from Bmp6-deficient mice, 50 ng/ml each, 2 h30
Description: as §4, §2, §3

[4] = tested on: SMAD1/5/8 phosphorylation in HepG2 cells; assay: SMAD1/5/8 phosphorylation in HepG2 cells by immunoblot; type: cell-based, human; conditions: 2 h30, 4 or 6 hours; for SMAD1/5/8 phosphorylation: HepG2, 50 ng/ml
Description: as §1, §5
Fresh protein extracts were diluted in Laemmli buffer (Sigma-Aldrich), incubated for 5 minutes at 95° C., and subjected to SDS-PAGE. Proteins were then transferred to PVDF membranes (Millipore). Membranes were blocked with 5% of dry milk in TBS-T buffer (10 mM Tris-HCl, pH 7.5, 150 mM NaCl, 0.15% Tween 20). They were incubated with rabbit antibodies to phospho-Smad1/5/8 (Cell Signaling Technology) or phospho-Stat3 (Cell Signaling) at 4° C. overnight, and washed with TBS-T buffer. Following incubation with a goat anti-rabbit IgG antibody (Cell Signaling) conjugated to horseradish peroxidase (HRP), enzyme activity was visualized by an ECL-based detection system (Millipore). Blots were then stripped and reprobed with rabbit antibodies to Smad5 (Epitomics) or Stat3 (Cell Signaling) 2 hours at RT before incubation with the goat anti-rabbit HRP-linked antibody.

BMP type I receptors = conditions: 100 nM; cited from earlier work
[5] = tested on: STAT3 phosphorylation in HepG2 cells; assay: STAT3 phosphorylation in HepG2 cells by immunoblot; type: cell-based, human; conditions: HepG2, 50 ng/ml
Description: as §1, §5
Fresh protein extracts were diluted in Laemmli buffer (Sigma-Aldrich), incubated for 5 minutes at 95° C., and subjected to SDS-PAGE. Proteins were then transferred to PVDF membranes (Millipore). […]

[6] = tested on: Stat3 signaling in mouse primary hepatocytes; assay: Stat3 signaling in mouse primary hepatocytes by immunoblot; type: cell-based; conditions: 50 ng/ml, 2 h30
Description: as §4, §5, §6

Compound: c1ccc2c(-c3cnn4cc(-c5ccc(N6CCNCC6)cc5)cnc34)ccnc2c1 [LDN-193189, reference compound]
- effect on induction of hepcidin gene expression by activin B ([1]; HepG2, 100 nM added 30 min before activin B (50 ng/ml), 2 h30, 4 or 6 hours after stimulation): completely abolished
- effect on Smad1/5/8 phosphorylation induced by activin B ([2]; 1 μM, activin B 50 ng/ml for 2 h30): prevented induction of Smad1/5/8 phosphorylation
- induction of hepcidin expression by IL-6, turpentine, or group A streptococcal peptidoglycan-polysaccharide (hepcidin expression): blocks induction of hepcidin expression
- effect on upregulation of Hamp gene expression by activin B ([3]; mouse primary hepatocytes, 1 μM, activin B 50 ng/ml): prevented
- effect on Smad1/5/8 phosphorylation induced by activin B ([4]; HepG2, 100 nM added 30 min before activin B (50 ng/ml)): completely abolished
- activity of BMP type I receptors (BMP type I receptors): inhibit activity of BMP type I receptors

Compound: IL-6: interleukin-6 cytokine, R&D Systems
- hepcidin mRNA expression increase [1]: about 6 fold
- hepcidin −ΔΔCt ±SD [1]: 2.63±0.26
- hepcidin mRNA increase [3]: about 1.8 fold
- hepcidin −ΔΔCt ±SD [3]: 0.82±0.24
- STAT3 phosphorylation [5]: induces STAT3 phosphorylation
- Stat3 signaling [6]: strong activation of Stat3 signaling

Compound: activin A
- SMAD1/5/8 phosphorylation [4]: not shared with activin A

Compound: activin B
- hepcidin mRNA expression increase [1]: about 13 fold
- hepcidin −ΔΔCt ±SD [1]: 3.71±0.46
- SMAD1/5/8 phosphorylation ([2]; 50 ng/ml, 2 h30): induces
- hepcidin mRNA increase [3]: about 7 fold
- hepcidin −ΔΔCt ±SD [3]: 2.81±0.92
- SMAD1/5/8 phosphorylation [4]: induces the phosphorylation of the SMAD effectors 1, 5 and 8
